Literature values in the PKSmart pharmacokinetics tables (Seal et al. 2025).

Experiment: Lombardo, Berellini, Obach 2018, Drug Metab Dispos 46:1466, doi 10.1124/dmd.118.082966
Settings: human; for MRT / Vd / clearance / half-life: in vivo, iv; for fraction unbound: plasma

SMILES | MRT [h] | Vd [L/kg] | clearance [mL/min/kg] | half-life [h] | fraction unbound
COc1cc2c(cc1OC)C(Cc1cc(OC)c(OC)c(OC)c1)[N+](C)(CCCOC(=O)CC/C=C/CCC(=O)OCCC[N+]1(C)CCc3cc(OC)c(OC)cc3C1Cc1cc(OC)c(OC)c(OC)c1)CC2 (configuration not stated) | 0.87 | 0.27 | 5.2 | 0.83 | 0.7
CCOc1cc([C@@H](CS(C)(=O)=O)N2C(=O)c3cccc(CC(C)=O)c3C2=O)ccc1OC | – | – | 2.38 | 6.03 | 0.32
O[C@](CO[C@@H]1CN2CCC1CC2)(c1ccccc1)C1CCCC1 | 17.8 | 2.12 | 1.99 | 15.7 | –
CN1CCN(C(=O)OC2c3nccnc3C(=O)N2c2ccc(Cl)cn2)CC1 (configuration not stated) | 6.6 | 1.3 | 3.3 | 5.2 | –
CC(=O)C1CC[C@H]2[C@@H]3CC[C@@H]4C[C@H](O)CC[C@]4(C)[C@H]3CC[C@]12C (some centres not stated) | 1.5 | 2 | 22 | 4.7 | 0.01
CNCC[C@@H](O)[C@@H]1C[C@H](SC2=C(C(=O)O)N3C(=O)C([C@@H](C)O)[C@H]3[C@H]2C)CN1 (some centres not stated) | 2.04 | 0.22 | 2.02 | 1.48 | –
C=C(Br)C(=O)Nc1cc(C(=O)Nc2cc(C(=O)Nc3cc(C(=O)Nc4cc(C(=O)NCCN=C(N)N)n(C)c4)n(C)c3)n(C)c2)n(C)c1 | 1.2 | 0.36 | 5.15 | 8.3 | –
COC[C@@H](O)CN(C(C)=O)c1c(I)c(C(=O)NC[C@H](O)CO)c(I)c(C(=O)NC[C@H](O)CO)c1I | 2.64 | 0.2 | 1.27 | 2.04 | 1
CC(O)C(=O)Nc1c(I)c(C(=O)NC(CO)CO)c(I)c(C(=O)NC(CO)CO)c1I (configuration not stated) | 2.5 | 0.28 | 1.9 | 2.1 | 1
Nc1n[n+]([O-])c2ccccc2[n+]1[O-] | – | – | – | – | 0.81
COP(=O)(c1cc(C)cc(/C=C/C#N)c1)c1c(C(N)=O)[nH]c2ccc(Cl)c(F)c12 (configuration not stated) | 8.9 | 0.97 | 1.83 | 7.4 | –
O=c1[nH]c(=O)n(C2CCCO2)cc1F (configuration not stated) | 10.8 | 0.62 | 0.95 | 8.69 | –
Cc1ccc(-n2nccn2)c(C(=O)N2CCN(c3nc4cc(Cl)ccc4o3)CC[C@H]2C)c1 | 13.8 | 0.69 | 0.84 | 10.4 | 0.05
CN[C@@H]1[C@@H](O)[C@@H](O[C@@H]2[C@@H](O)[C@H](O[C@H]3O[C@H](CN)[C@@H](O)[C@H](O)[C@H]3O)[C@@H](N)C[C@H]2NC(=O)C(O)CN)OC[C@]1(C)O (some centres not stated) | 4.1 | – | 1.3 | 24 | 0.95
CC(=O)[C@]1(O)Cc2c(O)c3c(c(O)c2[C@@H](O[C@H]2C[C@H](N4CC4)[C@H](OS(C)(=O)=O)[C@H](C)O2)C1)C(=O)c1ccccc1C3=O | 2.09 | 2.95 | 23.5 | 7.33 | 0.006
CC[C@@]1(O)C[C@H](O[C@@H]2C[C@H](N3CCOCC3)[C@H](O)[C@H](C)O2)c2c(O)c3c(c(O)c2[C@H]1O)C(=O)c1cccc(O)c1C3=O | 8 | 20.9 | 42.8 | 10.7 | 0.09
NCCCCC(NC(=O)C(Cc1cc(Br)c(O)c(Br)c1)NC(=O)N1CCC(N2Cc3ccccc3NC2=O)CC1)C(=O)N1CCN(c2ccncc2)CC1 (configuration not stated) | 1.9 | 0.31 | 2.6 | 2.5 | –
O=P(O)(O)OC(Cn1cncn1)(Cn1cncn1)c1ccc(F)cc1F | 2 | 0.15 | 1.3 | 2.1 | 0.042
N#Cc1c(N2C[C@@H]3NCCO[C@H]3C2)c(F)cc2c(=O)c(C(=O)O)cn(C3CC3)c12 | 4.11 | 1.42 | 5.75 | 13.4 | 0.75
COc1ccc(-c2nc3cc(C4=NNC(=O)CC4C)ccc3[nH]2)cc1 (configuration not stated) | 2.2 | 2 | – | 1.8 | 0.024
CCOc1ccc(Cc2cc(C3O[C@H](CO)[C@@H](O)[C@H](O)[C@H]3O)ccc2Cl)cc1 (some centres not stated) | 9.5 | 1.7 | 3 | 12.2 | 0.09
O=C(CCCN1CCC(n2c(=O)[nH]c3ccccc32)CC1)c1ccc(F)cc1 | 7.5 | 3.8 | 8.3 | 5.8 | –
NS(=O)(=O)c1cc(C2(O)NC(=O)c3ccccc32)ccc1Cl (configuration not stated) | 43 | 3.9 | 1.5 | 36 | –
CCOC(=O)[C@]1(c2ccccc2)CCC=C[C@H]1N(C)C | 4.2 | 4 | 16 | 5 | 0.21

SMILES | MRT [h] | Vd [L/kg] | clearance [mL/min/kg] | half-life [h] | fraction unbound
COc1ccc(CC(C)(C)NC[C@H](O)c2cc(O)cc3c2OCC(=O)N3)cc1 | 22.2 | 15.8 | 12.4 | 22.1 | 0.4
CNCCC=C1c2ccccc2CCc2ccccc21 | 37 | 22 | 10 | 30 | –
C=C[C@@H]1CNCC[C@@H]1CCCc1ccnc2ccc(OC)cc12 | 15.6 | 24.4 | 26 | 12.1 | –
CC(C(=O)O)c1ccc(C(=O)c2cccs2)cc1 (configuration not stated) | 0.88 | 0.04 | 0.76 | 2.1 | –
Cc1[nH]c(=O)c(C#N)cc1-c1ccncc1 | 0.67 | 0.25 | 6.2 | 0.8 | –
Cc1[nH]cnc1CN1CCc2c(c3ccccc3n2C)C1=O | 2.1 | 1.1 | 8.7 | 1.6 | –
C=CCN1CC[C@]23c4c5ccc(O)c4OC2C(=O)CC[C@@]3(O)[C@H]1C5 (some centres not stated) | 1.2 | 1.7 | – | 1.1 | 0.54
CC(C)(C)[N+](O)=Cc1ccc(S(=O)(=O)O)cc1S(=O)(=O)[O-] | 2.2 | 0.18 | 1.35 | 3.6 | 0.6
COc1cc2c(cc1OC)CC(=O)N(CCCN(C)C[C@H]1Cc3cc(OC)c(OC)cc31)CC2 | 2.69 | 1.66 | 10.3 | – | 0.28
CCCCCCCC/C=C/CCCCCCCC(=O)OC[C@H]1O[C@@H](n2ccc(N)nc2=O)[C@@H](O)[C@@H]1O | 0.51 | 0.14 | 4.53 | 0.36 | –
O=C(O)CO | 2.75 | 0.67 | 4.05 | 2.1 | 0.84
CC(=O)Nc1ccc(OC[C@H](O)CNC(C)C)cc1 | – | – | 2.28 | 12.2 | 0.93
CCOC(=O)Nc1ccc(NCc2ccc(F)cc2)nc1N | 11 | 1.1 | 1.6 | 8.5 | –
C[C@@H](O[C@H]1OCCN(Cc2nc(=O)n(P(=O)(O)O)[nH]2)[C@H]1c1ccc(F)cc1)c1cc(C(F)(F)F)cc(C(F)(F)F)c1 | 0.06 | 0.07 | 18.6 | 2.2 | 0.02
Cc1nc(=O)c(C#N)c(NCc2cccnc2)[nH]1 | 1.1 | 0.39 | 5.8 | 0.95 | 0.05
Cc1[nH]c(=O)c(C#N)cc1-c1ccc2nccn2c1 | 0.97 | 0.64 | 11 | 1.13 | –
CC(C)CC(NC(=O)C(CCc1ccccc1)NC(=O)CN1CCOCC1)C(=O)NC(Cc1ccccc1)C(=O)NC(CC(C)C)C(=O)[C@@]1(C)CO1 (some centres not stated) | 0.05 | 0.13 | 39.5 | 1.1 | 0.02
Cn1c(COP(=O)(NCCBr)NCCBr)cnc1[N+](=O)[O-] | 0.72 | 0.64 | 14.8 | 1 | –
N=C(N)N/N=C1\CCc2c(C(=N)N)cccc21 | 104 | 20 | 3.2 | 65.4 | –
CC(C)COC[C@@H](CN(Cc1ccccc1)c1ccccc1)N1CCCC1 | 19.3 | 10.1 | 8.7 | 14.9 | 0.001
O=C(O)C[C@@H]1CC[C@H](NC(=O)Cc2cccs2)B(O)O1 | 1.64 | 0.29 | 2.94 | 1.34 | 0.67
CCC[C@@H]1CC(=O)N(C(CC)C(N)=O)C1 (some centres not stated) | 12.5 | 0.56 | 0.75 | 8.98 | 0.825
COc1ccc2cc1Oc1ccc(cc1)C[C@H]1c3cc(c(OC)cc3CCN1C)Oc1c(OC)c(OC)c(Br)c3c1[C@H](C2)N(C)CC3 | 88.2 | 51 | 9.6 | 59.4 | 0.22
O=C(O)c1cccc(Cc2cc(Cl)ccc2OCc2ccc(Cl)cc2F)n1 | 6.4 | 0.77 | 2 | 8.15 | –

SMILES | MRT [h] | Vd [L/kg] | clearance [mL/min/kg] | half-life [h] | fraction unbound
COc1ccc(CC(NC(=O)CC(C)(C)N)C(=O)NC(Cc2c[nH]cn2)C(=O)N[C@@H](CC2CCCCC2)[C@@H](O)[C@@H](O)CC(C)C)cc1 (some centres not stated) | 3.1 | 0.11 | 0.45 | 1.72 | 0.07
COC1C(=O)C(C)C[C@H](C)C=CC=CC=C(C)[C@@H](OC)C[C@@H]2CC[C@@H](C)[C@@](O)(O2)C(=O)C(=O)N2CCCCC2C(=O)O[C@H]([C@H](C)C[C@@H]2CC[C@@H](OP(C)(C)=O)[C@H](OC)C2)CC(=O)C(C)=CC(C)[C@H]1O (some centres not stated) | 48.5 | 3.2 | 1.1 | 46.3 | –
CCN(CC)CC(=O)Nc1c(C)cccc1C | 1.9 | – | – | – | –
CCCNC(C)C(=O)Nc1c(C)csc1C(=O)OC (configuration not stated) | 1.04 | 7.7 | 127 | 0.98 | 0.46
COc1ccc2cc1Oc1cc3c(cc1OC)CC[N+](C)(C)[C@H]3Cc1ccc(cc1)Oc1c(OC)c(OC)cc3c1[C@@H](C2)[N+](C)(C)CC3 | 5.6 | 0.4 | 1.2 | 5.1 | 0.65
CCC(=O)C1(c2cccc(O)c2)CCN(C)CC1 | 0.87 | 0.48 | 9.2 | 2.3 | –
COc1c(-c2ccc3cc(NS(C)(=O)=O)ccc3c2)cc(-n2ccc(=O)[nH]c2=O)cc1C(C)(C)C | – | 2.13 | – | 5.7 | 0.005
Oc1ccc2c(c1)[C@@]13CCCC[C@@]1(O)[C@@H](C2)N(CC1CCC1)CC3 | 5.3 | 12 | 41 | 4.8 | 0.17
C[C@@H](OC[C@@]1(c2ccccc2)CC[C@]2(CCC(=O)N2)CN1)c1cc(C(F)(F)F)cc(C(F)(F)F)c1 | – | – | 0.38 | 148 | 0.002
OC[C@@H]1O[C@@H](n2cnc3c2N=CNC[C@H]3O)C[C@H]1O | 6 | 0.59 | 1.63 | 5.3 | –
C=CCOc1ccccc1OC[C@H](O)CNC(C)C | 1.56 | 0.72 | 7.7 | 1.09 | 0.19
Cc1ncsc1CCCl | 3.3 | 6.6 | 33 | 4.5 | 0.36
C[C@@H]1C=C2CC(=O)CCC2[C@H]2CC[C@]3(C)[C@@H](O)CC[C@H]3[C@H]12 (some centres not stated) | 0.67 | 0.8 | 20 | 0.65 | –
CC[C@@]1(O)C(=O)OCc2c1cc1n(c2=O)Cc2c-1nc1ccc(O)cc1c2[Si](C)(C)C(C)(C)C | 1.3 | 0.47 | 6 | 1.4 | –
CCC1(c2cnc[nH]2)Cc2ccccc2C1 | 2.3 | 2.7 | 19.6 | 1.7 | –
Cn1cc(C(=O)C2CCc3[nH]cnc3C2)c2ccccc21 (configuration not stated) | 6.28 | 2.65 | 7.03 | 4.94 | –
O=c1ccc2ccc(OCCCCN3CCN(c4cccc5sccc45)CC3)cc2[nH]1 | 71 | 1.46 | 0.34 | 54.4 | 0.002
C[C@@]1(Cn2ccnn2)C(C(=O)O)N2C(=O)C[C@H]2S1(=O)=O (some centres not stated) | 0.89 | 0.26 | 4.81 | 0.97 | 0.7
CCN[C@@H]1C[C@H](N)[C@@H](O[C@H]2OC(CN)=CC[C@H]2N)[C@H](O)[C@H]1O[C@H]1OC[C@](C)(O)[C@H](NC)[C@H]1O | 2.2 | 0.073 | 0.55 | 3.2 | 1
O=S(=O)(Nc1ccccc1)c1cccc(/C=C/C(O)=NO)c1 | 0.6 | 0.8 | 23.6 | 1.6 | 0.06
O[C@@H]1[C@@H](O)[C@@H](O)OC[C@H]1O | 1.9 | 0.23 | 2.38 | 1.2 | –
Nc1ccc(O)c(C(=O)O)c1 | 0.59 | 0.33 | 9.3 | 0.61 | 0.39
